Values after ≈ are worked out from the molar mass of the structure shown. Values joined by “and” are separate entries in the source; they are usually repeats but may differ in a detail not shown here. Equal entries are not always repeated. Where two headings read alike, the source gives them in different places.
How the values were obtained:
Format in all cases: cell-based
[1] = system: Enterococcus faecalis vanA (strain E0155); assay: MIC (microdilution) against E. faecalis; conditions: Enterococcus faecalis, read-out: MIC E. faecalis
Procedure: (§1) Staphylococcus aureus str. Newman, Enterococcus faecalis vanA (strain E0155), Enterococcus faecium vanA (strain E1654), Escherichia coli ATCC 25922, Escherichia coli D21f2 with a truncated LPS barrier, Escherichia coli JW5503 (ΔtolC) ([49]), Pseudomonas aeruginosa ATCC 27853, and Pasteurella haemolytica ATCC 29701 were grown in Mueller-Hinton Broth (MHB) (Oxoid, Basingstoke, UK) and incubated at 37°C.
(§2) The minimal inhibitory concentration was determined using the microdilution method following the guidelines of the European Committee on Antimicrobial Susceptibility Testing ([50]). Briefly, a series of twofold dilutions in MHB of each compound were made in a 96-well plate, with final concentrations ranging from 50 to 0.39 µg/mL in 100 µL final volume per well. A hundred microliters of 1:100 dilution of an overnight culture of the correspondent bacteria in MHB was added to each well. Plates were incubated for 18 hours at 37°C. MIC was recorded as the lowest concentration where no growth was detected as measured by optical density at 600 nm (OD600) using Spectramax M5 (Molecular Devices LLC, San Jose, CA, USA). […] Wells containing bacteria with or without 1% DMSO and medium alone were included as controls in every plate.

[2] = system: Escherichia coli ATCC 25922; assay: MIC (microdilution) against E. coli; conditions: Escherichia coli, ATCC25922; Table ST1; read-out: MIC E. coli
Procedure: as §1, §2

HEK293 cells [3] = assay: in vitro; conditions: for Selectivity Index: LC50/MIC (HEK293 / S. aureus); for LC20: human, 24 h
Procedure: (§3) HEK293 cells and the human hepatocellular carcinoma cells (HepG2) were routinely cultured in 75-cm^2 culture flasks (Corning Incorporated) on high-glucose Dulbecco’s modified Eagle medium (DMEM) containing glutaMax and phenol red (Gibco) supplemented with 1% penicillin/streptomycin (Gibco) and 10% fetal bovine serum (FBS) (Gibco). Cells were maintained at 37°C and 5% CO2.
(§4) Cytotoxicity assays with HEK293 and HepG2 cells were performed in 96-well plates seeded with 5 × 10^4 cells/well and incubated for 24 hours to reach 80%–90% confluency. Exterior wells were filled with only medium to prevent evaporation. Culture medium was removed from the cells, and 100 µL of exposure medium [high-glucose DMEM without phenol red (Gibco)] was added to avoid a potential interaction between FBS components or antibiotics and tested compounds. A twofold dilution series of compounds in exposure medium (range 100–3.2 μg/mL) was made in a separate 96-well plate, and 100 µL of each of these dilutions was added to the assay plates for 24 hours at 37°C in the presence of 5% CO2. Control wells contained cells with DMEM, DMEM + 1% DMSO (vehicle control), or DMEM + 20% DMSO. Wells without cells were also included as negative control. After exposure, the medium was replaced with 100 µL 10% Alamar Blue (Invitrogen) in exposure medium. After 45 min incubation at 37°C and 5% CO2, fluorescence was measured on a Spectramax M5 plate reader at λex = 541 nm, λem = 590 nm. Cell viability compared with the vehicle control was calculated, and inhibition curves for each compound were fitted (non-linear curve fit, four variables, bottom constrained = 0) in Prism 9 (GraphPad Software, San Diego, USA).

in vitro = conditions: human
Procedure: as §3, §4

[4] = system: Enterococcus faecium vanA (strain E1654); assay: MIC (microdilution) against E. faecium; conditions: Enterococcus faecium, read-out: MIC E. faecium
Procedure: as §1, §2

sheep red blood cells = assay: Haemolysis assay; conditions: for Haemolysis: if considered to cause haemolysis to red blood cells
Procedure: The hemolysis assay was adapted from the study by Evans et al. ([65]). Briefly, sheep RBC 10% washed pooled cells in PBS (Rockland Immunochemicals, Limerick, PA, USA) were diluted 1:5 to give a final concentration of 2% RBCs in PBS. […] A non-treated control, 1% DMSO (vehicle control), and complete cell lysis control (Triton-X 2%) were included in each assay. After exposure samples were centrifuged at 4°C at 1,000 g for 15 min and 100 µL of supernatant transferred to a clean well in a 96-well, clear, flat-bottom plate (Corning Incorporated). Released hemoglobin was measured by absorption at 540 nm using a Spectramax M5 plate reader. The experiments were performed in quadruplicate. The percentage of hemolysis was calculated as follows:
Hemolysis=A540nm,testcondition−A540nm,DMSOcontrol/A540nm,TritonXControl−A540nm,DMSOcontrol

[5] = system: Escherichia coli JW5503 (ΔtolC); assay: MIC (microdilution) against E. coli JW5503; conditions: Escherichia coli, read-out: MIC E. coli JW5503
Description: (§5) We also tested the inhibitory activity of compounds in two different E. coli mutants: (i) E. coli JW5503 that lacks TolC efflux pumps and (ii) E. coli D21f2 that has a defective LPS inner core increasing permeability of the outer membrane. E. coli D21f2 has a slightly higher susceptibility to DPP compounds than E. coli ATCC25922.
as §1, §2

S. aureus str. Newman = assay: Membrane permeability using SYTOX-Green, flow cytometry; conditions: for % FITC stained bacteria 0.5 xMIC: 0.5× MIC; for % FITC stained bacteria 0.5 xMIC / % FITC stained bacteria 1 xMIC / % FITC stained bacteria 2 xMIC: 5 min exposure; for % FITC stained bacteria 1 xMIC: 1× MIC; for % FITC stained bacteria 2 xMIC: 2× MIC; for Membrane damage: if considered to cause membrane damage to S. aureus
Procedure: S. aureus str. Newman was grown to exponential phase (OD600 = 0.4) in MHB media. […] Nisin (Sigma-Aldrich) and novobiocin (Sigma-Aldrich) were used as positive and negative controls for membrane permeabilization, and stained and unstained untreated controls were also included in each assay. After exposure, samples were centrifuged at 4,000 r.p.m. for 5 min and resuspended in PBS. Bacteria were dyed by adding the fluorescent nuclear stain SYTOX Green (Molecular Probes, Invitrogen) to a final concentration of 0.5 µM and incubating for 5 min in the dark. Samples were centrifuged again and resuspended with PBS to remove unbound stain. Three hundred microliters of each sample was transferred to a clean well in a 96-well clear-bottom plate (Corning Incorporated). Fluorescence was measured in CytoFLEX flow cytometer (Beckman Coulter, Brea, CA, USA) using the green (FITC) channel with the excitation wavelength at 488 nm. Overlay histograms were created with CytExpert Software (Beckman Coulter, Brea, CA, USA).

[6] = system: Staphylococcus aureus str. Newman; assay: Minimal inhibitory concentration (microdilution) against S. aureus; conditions: for MIC S. aureus: Table ST3
Procedure: as §1, §2

[7] = system: Pseudomonas aeruginosa ATCC 27853; assay: MIC (microdilution) against P. aeruginosa; conditions: Pseudomonas aeruginosa, ATCC27853; Table ST1; read-out: MIC P. aeruginosa
Procedure: as §1, §2

HEK293 cells [8] = assay: Cell imaging of HEK293 cells; conditions: for cells in G2/M phase: HEK293, LC20, 24 hours exposure, DMSO control 2.68% ± 1.31%; for Morphological changes of HEK293 cells: LC20, 24 hours exposure, 40× amplification
Procedure: HEK293 cells were plated in 24-well plates on exposure medium for 24 hours (500,000 cells/well). Cells were exposed to a subset of compounds at a lethal concentration of 20% (LC20). After 24 hours exposure, cells were fixed with 2% glutaraldehyde for 15 min, washed with water, permeabilized with 0.5% Triton-X, washed twice with water, and stained with Toluidine blue 0.3%. For 100× amplification, cells were harvested by pipetting up and down in 250 µL of exposure medium. Cells from three wells treated with the same compound were pooled and centrifuged for 5 min at 1,500 r.p.m. The cell pellet was fixed in 0.1 M cacodylate buffer containing 2% glutaraldehyde (vol/vol) (pH 7.4). After 1 hour on ice, the pellet was washed with 0.1 M cacodylate buffer and fixed in 0.1 M cacodylate buffer containing 1% osmium tetroxide (wt/vol). After a further hour on ice, the cell pellet was embedded in hard Epon and 1-µm slides were cut and stained with 1% toluidine blue and 1% borax (wt/vol). Cell abnormalities were assessed by microscopy using a Leica DM6B light microscope (Leica Microsystems B.V., Amsterdam, the Netherlands) at 100× magnification.

[9] = system: Pasteurella haemolytica ATCC 29701; assay: MIC (microdilution) against P. haemolytica; conditions: Mannheimia haemolytica
Procedure: as §1, §2

[10] = system: Escherichia coli D21f2 with a truncated LPS barrier; assay: MIC (microdilution) against E. coli D21f2; conditions: read-out: MIC E coli D21f2
Description: as §5, §1, §2

[11] = Staphylococcus aureus, NEWMAN, Fig 2
[12] = Staphylococcus aureus, NEWMAN, Fig 2, value in parentheses
[13] = Table ST3, value in parentheses
[14] = ATCC29701, read-out: MIC P. haemolytica, Table ST1
[15] = ATCC29701, Table ST1, read-out: MIC P. haemolytica

Compound	MIC [1] [µg/mL]	MIC [2] [µg/mL]	Selectivity Index (HEK293 cells [3])	LC20 (HEK293 cells [3]) [µg/mL]	CC50 at 24 h (in vitro)	MIC [4] [µg/mL]	RBC hemolysis (sheep red blood cells)	MIC [5] [µg/mL]	% FITC stained bacteria 0.5 xMIC (S. aureus str. Newman) [%]	% FITC stained bacteria 1 xMIC (S. aureus str. Newman) [%]	% FITC stained bacteria 2 xMIC (S. aureus str. Newman) [%]	Membrane damage (S. aureus str. Newman)	MIC [6, 11] [µg/mL]	MIC [6, 12] [µM]	MIC S. aureus [6] [µg/mL]	MIC [6, 13] [µM]	MIC [7] [µg/mL]	cells in G2/M phase (HEK293 cells [8])	Morphological changes of HEK293 cells (HEK293 cells [8])	MIC [9, 14] [µg/mL]	further results
CCOc1ccc(-c2[nH]nc(C(F)(F)F)c2-c2ccc(OC)cc2)c(O)c1 [DPP-14]	12.5 (≈ 33 µM)	> 250	1.05	3 (≈ 7.93 µM)	6.57 µg/mL and 17.3 µM	12.5 (≈ 33 µM)	not hemolytic	3.13 (≈ 8.27 µM)	28.78	44.58	56.62	YES	6.25	16.4	6.25 (≈ 16.5 µM)	16.45	> 250	12.24% ± 1.23%	no morphological changes	> 250	
CCOc1ccc(-c2[nH]nc(C(F)(F)F)c2-c2ccc(OC)c(OC)c2)c(O)c1 [DPP-20]	25 (≈ 61.2 µM)	> 250	1.32	3 (≈ 7.35 µM)	16.5 µg/mL and 40.3 µM	25 (≈ 61.2 µM)	not hemolytic	6.25 (≈ 15.3 µM)	31.90	40.99	50.97	YES	12.5	30.5	12.5 (≈ 30.6 µM)	30.49	> 250	26.25% ± 4.68%	no morphological changes	> 250	
FC(F)(F)c1n[nH]c(-c2ccccc2)c1-c1ccc(Cl)cc1 [DPP-21]	12.5 (≈ 38.7 µM)	> 250	4.56			12.5 (≈ 38.7 µM)		1.56 (≈ 4.83 µM)	31.51	35.84	51.03	YES	1.56	4.8	1.56 (≈ 4.83 µM)	4.8	> 250				Haemolysis (sheep red blood cells): YES; MIC [9, 15]: 12.5 µg/mL (≈ 38.7 µM); MIC [10]: > 250 µg/mL
Oc1ccccc1-c1[nH]nc(C(F)(F)F)c1-c1ccc(Cl)cc1 [DPP-22]	12.5 (≈ 36.9 µM)	> 250	1.85		2.89 µg/mL and 8.5 µM	12.5 (≈ 36.9 µM)		1.56 (≈ 4.61 µM)					1.56	4.59	1.56 (≈ 4.61 µM)	4.59	> 250				Haemolysis (sheep red blood cells): YES; MIC [9, 15]: 12.5 µg/mL (≈ 36.9 µM); MIC [10]: 25 µg/mL (≈ 73.8 µM)

Reference: publication PMC11302729, “Repurposing Hsp90 inhibitors as antimicrobials targeting two-component systems identifies compounds leading to loss of bacterial membrane integrity” (Microbiology Spectrum, 2024)
